Assay results: PubChem BioAssay (NCI)
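Each compound was tested at five concentrations against cells in 96-well plates for 48 hours. At the TGI there is no net growth.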

Columns and labels:
Experiment in all cases: NCI-60 cell line screen, 48 h
MDA-MB-435 = tested on: MDA-MB-435
SW-620 colon = tested on: SW-620 colon
SK-OV-3 ovarian = tested on: SK-OV-3 ovarian
OVCAR-3 ovarian = tested on: OVCAR-3 ovarian
BT-549 breast = tested on: BT-549 breast
NCI-H226 lung = tested on: NCI-H226 lung
SNB-19 CNS = tested on: SNB-19 CNS
SF-295 CNS = tested on: SF-295 CNS
MCF7 breast = tested on: MCF7 breast
MDA-MB-231 breast = tested on: MDA-MB-231 breast
HCT-15 colon = tested on: HCT-15 colon
COLO 205 colon = tested on: COLO 205 colon

Row | Compound | TGI (MDA-MB-435) | TGI (SW-620 colon) | TGI (SK-OV-3 ovarian) | TGI (OVCAR-3 ovarian) | TGI (BT-549 breast) | TGI (NCI-H226 lung) | TGI (SNB-19 CNS) | TGI (SF-295 CNS) | TGI (MCF7 breast) | TGI (MDA-MB-231 breast) | TGI (HCT-15 colon) | TGI (COLO 205 colon)
1 | COc1cc2c(cc1C)NC(=O)/C2=C/c1c(Cl)[nH]c2cc(C)c(OC)cc12 | 8.49 µM | 19.7 µM | 5.56 µM | 8.6 µM | 9.92 µM | 50.6 µM | 20.4 µM | 6.18 µM | 20.4 µM | 33.2 µM | 17.5 µM | 12.7 µM
2 | c1ccc(Cc2cccc3cc(-c4ccc(-c5ccccc5)cc4)[nH]c23)cc1 | > 100 µM | > 100 µM | > 100 µM | > 100 µM | > 100 µM | > 100 µM | > 100 µM | > 100 µM | > 100 µM | > 100 µM | > 100 µM | > 100 µM
3 | O=[N+]([O-])c1cc2n[nH]nc2c2nonc12 | 30.1 µM | > 100 µM | > 100 µM | 95.1 µM | 24.1 µM | 40.9 µM | > 100 µM | > 100 µM | 21.5 µM | > 100 µM | > 100 µM | 71.5 µM
4 | CC(C)(C)OC(=O)N1C(C2=COc3ccccc3O2)=COc2ccccc21 | > 100 µM | 67.8 µM | > 100 µM | 47.2 µM | 71.4 µM | 88.8 µM | > 100 µM | 83.5 µM | 60.2 µM | 69.6 µM | > 100 µM | 38.2 µM
5 | N#CS/C(C(Cl)=C(Cl)Cl)=C(/Cl)[N+](=O)[O-] | 3.19 µM | 3.5 µM | 31.2 µM | 3.1 µM | 4.92 µM | 19.9 µM | 49.4 µM | 45.4 µM | 29.3 µM | 11.9 µM | 6.59 µM | 3.66 µM
6 | CS(C)(=O)=N/C=C\C(=O)C(Cl)(Cl)Cl | > 100 µM | > 100 µM | > 100 µM | > 100 µM | > 100 µM | > 100 µM | > 100 µM | > 100 µM | > 100 µM | > 100 µM | > 100 µM | > 100 µM
7 | O=C(Nc1ccc(Cl)cc1)c1cc(S(=O)(=O)Nc2n[nH]c(=O)[nH]2)c(SSc2cc(Cl)c(C(=O)Nc3ccc(Cl)cc3)cc2S(=O)(=O)Nc2n[nH]c(=O)[nH]2)cc1Cl | > 100 µM | > 100 µM | > 100 µM | > 100 µM | > 100 µM | > 100 µM | > 100 µM | > 100 µM | > 100 µM | > 100 µM | > 100 µM | > 100 µM
8 | O=C(N/N=C(/COc1cccc(Cl)c1)N=Cc1ccncc1)c1ccncc1 | > 100 µM | > 100 µM | > 100 µM | > 100 µM | > 100 µM | > 100 µM | > 100 µM | > 100 µM | > 100 µM | > 100 µM | > 100 µM | > 100 µM
9 | CCCCc1ccc(Nc2nc3c(ncn3C3OC(COC(C)=O)C(OC(C)=O)C3OC(C)=O)c(=O)[nH]2)cc1 (stereo not given) | 34.5 µM | 48.2 µM | 71.1 µM | 31.6 µM | 32.2 µM | 60.6 µM | 81.5 µM | 53.1 µM | 63.2 µM | 31.1 µM | > 100 µM | 37.7 µM
10 | COC(=O)C12CCC(C(=O)OC)(Cc3c(c4ccccc4n3S(=O)(=O)c3ccccc3)C1)C2=O (stereo not given) | > 100 µM | > 100 µM | > 100 µM | > 100 µM | > 100 µM | > 100 µM | > 100 µM | > 100 µM | > 100 µM | > 100 µM | > 100 µM | > 100 µM
11 | COc1ccc(/C=C2/C(=O)N(C(=O)c3ccccc3O)N=C2C)cc1OC | > 100 µM | > 100 µM | > 100 µM | 10.5 µM | > 100 µM | 40.5 µM |  | > 100 µM | 33.9 µM | > 100 µM | > 100 µM | > 95.1 µM
12 | COCCc1c(C)c(C#N)c2n(C)c3ccccc3n2c1=O | > 10 µM | > 10 µM | > 10 µM | > 10 µM | > 10 µM | > 10 µM | > 10 µM | > 10 µM | > 10 µM | > 10 µM | > 10 µM | > 10 µM
13 | CCN(CC)CC(O)c1ccc2ccc3ccccc3c2c1 (stereo not given) | 31.3 µM | 34.9 µM | 29.5 µM | 29.1 µM | 30.5 µM | 29.5 µM | 29.5 µM | 28.9 µM | 28.2 µM | 28.4 µM | 33.2 µM | 29.9 µM
14 | CCN(CC)CCN1c2ccccc2Sc2ccc3ccccc3c21 | 21.2 µM | 24.4 µM | 29.4 µM | 24.6 µM | 29.9 µM | 19.1 µM | 29.6 µM | 26.4 µM | 23.6 µM | 18.3 µM | 22.1 µM | 15.9 µM
15 | COc1cc(/C=C2\C(=O)N(c3cccc(Cl)c3)C(c3ccccc3)S2(=O)=O)cc(OC)c1OC (stereo not given) | > 100 µM | > 100 µM | > 100 µM | > 100 µM | > 100 µM | > 100 µM | > 100 µM | > 100 µM | > 100 µM | > 100 µM | > 100 µM | > 100 µM
16 | CCCCC1Cc2cc(O)ccc2-c2n1c1cc(O)ccc1[n+]2C (stereo not given) (tested in a mixture with another compound) | 59.6 µM | > 100 µM | > 100 µM | 98.7 µM | > 100 µM | > 100 µM | > 39.8 µM | > 60.1 µM | > 72.7 µM | > 100 µM | > 88.3 µM | 44.2 µM
17 | C/C(Cl)=N\OC(=O)Nc1ccc([N+](=O)[O-])cc1 | 32.9 µM | 4.06 µM | > 32.6 µM | 6.1 µM | 66.7 µM | > 100 µM | 33.1 µM | 31.8 µM | 5.73 µM | 37.1 µM | 34.2 µM | 5.85 µM
18 | NS(=O)(=O)c1nnc(NC(=O)CCC(=O)O)s1 | > 100 µM | > 100 µM | > 100 µM | > 100 µM | > 100 µM | > 100 µM | > 100 µM | > 100 µM | > 100 µM | > 100 µM | > 100 µM | > 100 µM
19 | CCN(CC)CCn1ncc2ccc3c(c(=O)c4cccnc4n3CCN(CC)CC)c21 | 1.94 µM | > 6.66 µM | > 9.46 µM | 4.12 µM | 5.11 µM | 5.44 µM | 9.97 µM | > 9.52 µM | 4.62 µM | 4.07 µM | 6 µM | 1.46 µM
20 | C1CNCCN2CCCNCCN(C1)CC2 | > 100 µM | > 100 µM | > 100 µM | > 100 µM | > 100 µM | > 100 µM | > 100 µM | > 100 µM | > 100 µM | > 100 µM | > 100 µM | > 100 µM
21 | C=CCCCCOC1C=CC(OC(C)=O)C(COC(C)=O)O1 (stereo not given) | > 100 µM | > 100 µM | > 100 µM | > 100 µM | > 100 µM | > 100 µM | > 100 µM | > 100 µM | > 100 µM | > 100 µM | > 100 µM | > 100 µM
22 | CCCCCCCCCc1cc(O)c(O)cc1CCCCCCCCC | > 10 µM | > 10 µM | > 10 µM | > 10 µM | > 10 µM | > 10 µM | > 10 µM | > 10 µM | > 10 µM | > 10 µM | > 10 µM | > 10 µM
23 | NS(=O)(=O)c1ccc(NNC(=O)c2cccc3c(=O)c4ccccc4[nH]c23)cc1 | > 100 µM | > 100 µM | > 100 µM | > 100 µM | > 100 µM | > 100 µM | > 100 µM | > 100 µM | > 100 µM | > 100 µM | > 100 µM | > 100 µM
24 | Clc1cc2nc(C3CCCO3)[nH]c2cc1Cl (stereo not given) | > 100 µM | > 100 µM | > 100 µM | > 100 µM | 91.3 µM | > 100 µM | > 100 µM | > 100 µM | > 100 µM | > 100 µM | > 100 µM | > 100 µM
25 | COC(=O)N1CC[C@@H]2CCC=C(c3cccc4c3OCO4)[C@@H]21 | > 100 µM | > 100 µM | > 100 µM | > 100 µM | > 100 µM | > 100 µM | > 100 µM | > 100 µM | > 100 µM | > 100 µM | > 100 µM | > 100 µM
26 | COc1ccc2c(c1)/C(=C(\C(Cl)=C(Cl)Cl)[N+](=O)[O-])N2 | > 100 µM | > 100 µM | > 100 µM | > 100 µM | > 100 µM | 85.7 µM | > 100 µM | > 100 µM | > 100 µM | > 100 µM | > 100 µM | > 100 µM
27 | C=C1CC(OC(C)=O)/C=C(/C)CCC(C(C)(C)O)CC1O (stereo not given) | > 100 µM | > 100 µM | > 100 µM | > 100 µM | > 100 µM | > 100 µM | > 100 µM | > 100 µM | > 100 µM | > 100 µM | > 100 µM | > 100 µM
28 | CCOC(=O)c1ccc(N=C2SC(=S)N(c3ccc(F)cc3)C2=Nc2ccc(C(=O)OCC)cc2)cc1 | 40.7 µM | 30 µM | > 100 µM | > 53.7 µM | 40.6 µM | 43.1 µM | > 100 µM | > 100 µM | 42.2 µM | 25.2 µM | 21.4 µM | 40.3 µM
